Measurements as given in ChEMBL document CHEMBL6120968, “Discovery of Thiadiazoleamide Derivatives as Potent, Selective, and Orally Available Antagonists Disrupting Androgen Receptor Homodimer” (J Med Chem, 2024).

Tests used:
[1] = Cmax in rat at 20 mg/kg, po by LC-MS/MS analysis; type: ADME, organism-based; details: in vivo
[2] = AUC (0 to infinity) in rat at 20 mg/kg, po by LC-MS/MS analysis; type: ADME, organism-based; details: in vivo
[3] = Microsomal stability in Beagle dog liver microsome assessed as parent compound remaining at 60 mins in presence of NADPH and UDPGA by HPLC-MS/MS analysis; type: ADME, Canis lupus familiaris; details: liver microsomes, read-out: Stability
[4] = Microsomal stability in Beagle dog liver microsome assessed as intrinsic clearance measured upto 60 mins in presence of NADPH and UDPGA by HPLC-MS/MS analysis; type: ADME, Canis lupus familiaris; details: liver microsomes, read-out: CLH
[5] = Half life in rat at 20 mg/kg, iv by LC-MS/MS analysis; type: ADME, organism-based; details: in vivo
[6] = Microsomal stability in rat liver microsome assessed as parent compound remaining at 60 mins in presence of NADPH and UDPGA by HPLC-MS/MS analysis; type: ADME; details: liver microsomes, read-out: Stability
[7] = Observed apparent oral clearance in rat at 20 mg/kg, po by LC-MS/MS analysis; type: ADME, organism-based; details: in vivo
[8] = target: T1, Mineralocorticoid receptor (Homo sapiens, UniProt P08235); assay: Agonist activity at Mineralocorticoid receptor (unknown origin)
T1 sequence (P08235 whole entry): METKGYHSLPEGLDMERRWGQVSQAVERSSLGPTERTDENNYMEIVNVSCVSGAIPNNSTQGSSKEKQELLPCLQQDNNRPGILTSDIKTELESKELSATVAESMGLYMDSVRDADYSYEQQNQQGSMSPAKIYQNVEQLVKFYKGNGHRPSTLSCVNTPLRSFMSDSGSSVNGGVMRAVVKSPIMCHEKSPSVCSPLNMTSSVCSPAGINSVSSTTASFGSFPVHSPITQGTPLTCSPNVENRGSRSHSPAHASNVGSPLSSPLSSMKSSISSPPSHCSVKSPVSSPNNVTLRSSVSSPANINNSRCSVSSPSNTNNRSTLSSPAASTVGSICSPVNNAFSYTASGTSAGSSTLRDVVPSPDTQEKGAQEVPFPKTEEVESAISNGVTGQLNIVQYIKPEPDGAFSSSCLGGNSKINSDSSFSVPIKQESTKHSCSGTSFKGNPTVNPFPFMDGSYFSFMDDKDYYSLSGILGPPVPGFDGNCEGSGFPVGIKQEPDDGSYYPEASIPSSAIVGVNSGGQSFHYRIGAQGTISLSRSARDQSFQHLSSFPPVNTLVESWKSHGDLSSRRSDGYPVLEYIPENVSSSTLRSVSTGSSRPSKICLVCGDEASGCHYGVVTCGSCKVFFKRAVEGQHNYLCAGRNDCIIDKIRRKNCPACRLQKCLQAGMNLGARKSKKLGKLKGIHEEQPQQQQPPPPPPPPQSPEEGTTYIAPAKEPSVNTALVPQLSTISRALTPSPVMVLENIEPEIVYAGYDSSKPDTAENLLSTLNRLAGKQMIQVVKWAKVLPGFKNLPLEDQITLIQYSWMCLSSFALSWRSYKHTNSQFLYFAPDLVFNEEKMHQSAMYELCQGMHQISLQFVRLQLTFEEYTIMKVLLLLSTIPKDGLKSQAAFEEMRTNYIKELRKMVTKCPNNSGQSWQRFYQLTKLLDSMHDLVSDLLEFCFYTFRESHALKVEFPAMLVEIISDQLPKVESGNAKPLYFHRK

[9] = Half life in rat at 20 mg/kg, po by LC-MS/MS analysis; type: ADME, organism-based; details: in vivo
[10] = target: hERG (KCNH2) (Homo sapiens, UniProt Q12809); assay: Inhibition of hERG at 10 uM relative to control; type: toxicity
Sequence of hERG (KCNH2) (Q12809 whole entry): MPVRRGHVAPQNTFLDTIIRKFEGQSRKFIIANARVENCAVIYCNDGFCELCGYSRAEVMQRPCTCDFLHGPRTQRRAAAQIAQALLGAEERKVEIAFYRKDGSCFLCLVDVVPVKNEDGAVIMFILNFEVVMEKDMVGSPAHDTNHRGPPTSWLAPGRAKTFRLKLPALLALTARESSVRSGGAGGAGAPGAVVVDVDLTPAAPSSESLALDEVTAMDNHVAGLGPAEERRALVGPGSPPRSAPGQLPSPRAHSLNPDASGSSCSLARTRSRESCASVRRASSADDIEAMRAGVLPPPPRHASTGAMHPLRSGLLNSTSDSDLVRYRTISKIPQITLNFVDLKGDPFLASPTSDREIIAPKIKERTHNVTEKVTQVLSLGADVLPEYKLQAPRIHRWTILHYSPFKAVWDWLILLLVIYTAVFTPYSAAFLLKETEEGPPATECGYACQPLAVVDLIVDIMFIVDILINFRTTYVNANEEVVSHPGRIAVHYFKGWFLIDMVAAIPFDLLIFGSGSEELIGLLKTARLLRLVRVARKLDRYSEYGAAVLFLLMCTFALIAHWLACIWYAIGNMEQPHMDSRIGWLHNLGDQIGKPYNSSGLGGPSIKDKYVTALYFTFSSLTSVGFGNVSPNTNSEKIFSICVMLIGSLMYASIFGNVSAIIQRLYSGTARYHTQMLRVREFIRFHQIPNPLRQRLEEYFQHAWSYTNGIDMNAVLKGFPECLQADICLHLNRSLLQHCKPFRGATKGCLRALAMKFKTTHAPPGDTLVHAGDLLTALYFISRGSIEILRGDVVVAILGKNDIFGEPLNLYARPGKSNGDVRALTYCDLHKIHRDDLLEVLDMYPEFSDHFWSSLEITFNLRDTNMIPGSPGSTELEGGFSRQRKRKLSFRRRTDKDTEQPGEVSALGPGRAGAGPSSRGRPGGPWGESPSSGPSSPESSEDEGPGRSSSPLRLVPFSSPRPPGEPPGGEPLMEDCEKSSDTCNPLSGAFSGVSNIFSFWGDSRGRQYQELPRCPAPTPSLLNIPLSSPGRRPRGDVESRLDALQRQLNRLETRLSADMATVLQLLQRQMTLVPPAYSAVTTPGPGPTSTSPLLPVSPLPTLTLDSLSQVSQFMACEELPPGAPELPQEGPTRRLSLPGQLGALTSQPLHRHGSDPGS

[11] = target: T2, Progesterone receptor (Homo sapiens, UniProt P06401); assay: Agonist activity at progesterone receptor (unknown origin)
T2 sequence (P06401 whole entry): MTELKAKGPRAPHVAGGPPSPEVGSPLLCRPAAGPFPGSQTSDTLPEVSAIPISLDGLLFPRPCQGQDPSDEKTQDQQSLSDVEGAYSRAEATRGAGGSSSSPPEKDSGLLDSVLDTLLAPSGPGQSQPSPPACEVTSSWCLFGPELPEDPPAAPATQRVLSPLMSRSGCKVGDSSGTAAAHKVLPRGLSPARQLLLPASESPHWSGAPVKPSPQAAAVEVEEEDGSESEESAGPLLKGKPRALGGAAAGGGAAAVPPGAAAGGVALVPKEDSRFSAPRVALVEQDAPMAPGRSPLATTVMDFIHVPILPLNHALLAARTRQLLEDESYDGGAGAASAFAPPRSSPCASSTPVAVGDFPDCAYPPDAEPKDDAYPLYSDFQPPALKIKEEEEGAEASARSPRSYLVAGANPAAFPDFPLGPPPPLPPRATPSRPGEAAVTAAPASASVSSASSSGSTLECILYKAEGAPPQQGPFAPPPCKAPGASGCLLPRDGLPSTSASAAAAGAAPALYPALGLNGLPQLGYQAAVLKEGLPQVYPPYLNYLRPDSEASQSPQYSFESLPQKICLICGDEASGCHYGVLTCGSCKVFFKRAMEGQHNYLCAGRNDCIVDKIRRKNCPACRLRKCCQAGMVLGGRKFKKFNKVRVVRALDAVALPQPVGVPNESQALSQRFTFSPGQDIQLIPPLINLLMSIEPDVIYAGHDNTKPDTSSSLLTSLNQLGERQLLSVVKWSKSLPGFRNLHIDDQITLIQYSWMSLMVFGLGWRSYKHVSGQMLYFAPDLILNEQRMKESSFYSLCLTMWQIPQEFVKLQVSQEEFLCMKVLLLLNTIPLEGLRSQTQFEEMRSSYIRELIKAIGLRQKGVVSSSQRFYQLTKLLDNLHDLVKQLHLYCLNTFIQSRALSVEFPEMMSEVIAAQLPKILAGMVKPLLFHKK

[12] = AUC (0 to infinity) in rat at 20 mg/kg, iv by LC-MS/MS analysis; type: ADME, organism-based; details: in vivo
[13] = Microsomal stability in mouse liver microsome assessed as half life measured upto 60 mins in presence of NADPH and UDPGA by HPLC-MS/MS analysis; type: ADME; details: liver microsomes
[14] = Cmax in rat at 20 mg/kg, iv by LC-MS/MS analysis; type: ADME, organism-based; details: in vivo
[15] = MRTlast in rat at 20 mg/kg, iv by LC-MS/MS analysis; type: ADME, organism-based; details: in vivo
[16] = Microsomal stability in rat liver microsome assessed as half life measured upto 60 mins in presence of NADPH and UDPGA by HPLC-MS/MS analysis; type: ADME; details: liver microsomes

Cc1oc(-c2cccc(C(F)(F)F)c2)cc1C(=O)Nc1nc(CN2CCOCC2)ns1
Cmax [1]: 1880 ng/mL
AUC(0-inf) [2]: 22100 ng·h/mL
remaining at 1 h [3]: 12.6%
microsomal CLint [4]: 31.5 µL/min/mg
half-life [5]: 7.84 h
remaining at 1 h [6]: 22.5%
CL/F [7]: 17.3 mL/min/kg
IC50 [8]: > 10 µM
half-life [9]: 6.86 h
inhibition at 10 µM [10]: 20.7%
IC50 [11]: > 10 µM
AUC(0-inf) [12]: 35800 ng·h/mL
half-life [13]: 0.642 h
Cmax [14]: 8450 ng/mL
MRT last [15]: 6 h
half-life [16]: 0.494 h
